Each structure is given as a SMILES string.

The values below come from patent publication US6884810B2, “Benzimidazole derivatives” (Zeria Pharmaceutical Co., Ltd., priority 2001, dated 2005).

The subject of the first test is gastric acid secreted under stimulation with histamine. Description: Gastric acid secretion inhibition action, histamine-stimulated, acute Fistula method. The test is classed as in vivo, Sprague-Dawley (SD) rats. Conditions: Rattus norvegicus, SD rats, administered in the duodenum; histamine 8 mg/kg/h; total acid discharge at 3, 4 and 5 hours; Probit method. How it is done:
(Gastric Acid Secretion Inhibition Action)
(1) Test Animals Employed were Sprague-Dawley (SD) Rats (7 Weeks Old, Male) Purchased from Charles River Japan, Inc. Before the Test, the Rats Were Fed for 5 Days or More.
Each test drug was suspended in, or dissolved in, 0.5% sodium carboxymethylcellulose solution, whereby a suspension or solution was prepared so as to attain 2.5 mL/kg.
(2) Measurement of Gastric Acid Secretion
The amount of gastric acid secreted under stimulation with histamine was measured on the rats fasted for 18 hours by use of the acute Fistula method as described by Hiramatsu et al. (Dig. Dis. Sci.,39, 689-697(1994)). Briefly, each rat was etherized lightly, and then a winged tubular needle filled with 3.8% citric acid solution was indwelled in the tail vein of the rat. The abdomen of the rat was opened, and the pyloric part of the stomach was ligated. Subsequently, a small hole was made in the duodenum, and the abdomen of the rat was closed with a feeding tube filled with saline indwelled. The inside of the stomach was washed with saline, a polyethylene-made Fistula tube (inner diameter: 4 mm) was set in the anterior stomach, and the cut portion of the anterior stomach was ligated and secured. The stomach and the duodenum were returned to the abdominal cavity, with the Fistula tube and the feeding tube exposed outside. The rat was placed in a Ballman cage II. Histamine was continuously administered through the winged injection needle which had been indwelled in the tail vein in advance (8 mg/kg/h, 1.38 mL/h). 15 Minutes thereafter, gastric juice of the rat was collected. Subsequently, collection of gastric juice was performed every one hour. Each time, the amount of the collected gastric juice was recorded, followed by titration with NaOH (0.1 mol/L) up to the end point pH 7.0. From the volume consumed for titration, acidity was calculated. The acid discharge amount was calculated as a product of the amount of the gastric juice and the acidity. Before starting the test, the rats were grouped so that the intra-group total amount of the gastric juice samples initially collected was the same between groups. Thereafter, each test drug was administered (2.5 mL/kg) in the duodenum through a feeding tube which had been attached to the duodenum in advance. To each rat of a control group, 0.5% Na-CMC solution was administered.
(3) Analysis of the Results
The data as obtained above are shown by way of mean±standard error. Total amount of acid discharge was obtained through summation of the amounts of acid discharge at three points in time; i.e., 3, 4 and 5 hours after initial collection of gastric juice. Percent inhibition of each group was computed from the total acid discharge amount of the control group and that of each group. On the basis of the percent inhibition calculated for each group, 50% effective dose (ED50) was computed by use of the Probit method.
`COc1c(OCCOCC(F)(F)F)ccnc1C[S+]([O-])c1nc2ccccc2[nH]1` (single isomer, unassigned; (+)) [Example 3(2), (+)-2-{3-methoxy-4-[2-(2,2,2-trifluoroethoxy)ethoxy]pyridin-2-yl-methylsulfinyl}-1H-benzimidazole] gave an ED50 of 2.2 mg/kg.

In turn, `[O-][S+](Cc1cc(OCCCC(F)(F)F)ccn1)c1nc2ccccc2[nH]1` (single isomer, unassigned; (-)) [Example 10(2), (−)-2-[4-(4,4,4-trifluorobutoxy)pyridin-2-yl-methanesulfinyl]-1H-benzimidazole] came in with an ED50 of 0.97 mg/kg.

`[O-][S+](Cc1cc(OCCOCC(F)(F)F)ccn1)c1nc2ccccc2[nH]1` (single isomer, unassigned; (-)) [Example 13(3), (−)-2-{4-[2-(2,2,2-trifluoroethoxy)ethoxy]pyridin-2-yl-methanesulfinyl}-1H-benzimidazole] displayed an ED50 of 0.59 mg/kg.

The compound `COc1c(OCCCC(F)(F)F)ccnc1C[S+]([O-])c1nc2ccccc2[nH]1` (stereo not drawn) [Example 1(2), 2-[3-methoxy-4-(4,4,4-trifluorobutoxy)pyridin-2-yl-methylsulfinyl]-1H-benzimidazole] came in with an ED50 of 1.3 mg/kg.

As for `COc1c(OCCOCC(F)(F)F)ccnc1C[S+]([O-])c1nc2ccccc2[nH]1` (stereo not drawn) [Example 2(2), 2-{3-methoxy-4-[2-(2,2,2-trifluoroethoxy)ethoxy]pyridin-2-yl-methylsulfinyl}-1H-benzimidazole], the 50% effect level (ED50) was put at a dose of 1.9 mg/kg.

Compound `[O-][S+](Cc1cc(OCCCC(F)(F)F)ccn1)c1nc2ccccc2[nH]1` (stereo not drawn) [Example 9(3), 2-[4-(4,4,4-trifluorobutoxy)pyridin-2-yl-methanesulfinyl]-1H-benzimidazole] came in with an ED50 of 0.32 mg/kg.

`COc1ccc2nc([S@@+]([O-])Cc3ncc(C)c(OC)c3C)[nH]c2c1` [esomeprazole, reference compound] showed an ED50 of 2.9 mg/kg.

For `Cc1c(OCC(F)(F)F)ccnc1C[S+]([O-])c1nc2ccccc2[nH]1` (stereo not drawn) [lansoprazole, reference compound], the ED50 was 1.1 mg/kg.

`COc1ccc2[nH]c([S+]([O-])Cc3ncc(C)c(OC)c3C)nc2c1` (stereo not drawn) [omeprazole, reference compound] had an ED50 of 3.6 mg/kg.

In turn, `COc1ccnc(C[S+]([O-])c2nc3ccc(OC(F)F)cc3[nH]2)c1OC` (stereo not drawn) [pantoprazole, reference compound] displayed an ED50 of 0.34 mg/kg.

In turn, `COCCCOc1ccnc(C[S+]([O-])c2nc3ccccc3[nH]2)c1C` (stereo not drawn) [rabeprazole, reference compound] displayed an ED50 of 2.5 mg/kg.

Still in this test, the particulars now being: SD rats, administered in the duodenum; histamine 8 mg/kg/h; total acid discharge at 3, 4 and 5 hours; Probit method.
With `COc1c(OCCCC(F)(F)F)ccnc1C[S+]([O-])c1nc2ccccc2[nH]1` (single isomer, unassigned; (-)) [Example 6(1), (−)-2-[3-methoxy-4-(4,4,4-trifluorobutoxy)pyridin-2-yl-methanesulfinyl]-1H-benzimidazole], the “Gastric-acid secretion inhibition action [ED50 (mg/kg)]” value is listed as 1.4 mg/kg.
